Reference: patent US20150285817A1 (priority 2014, published 2015)
Where two headings read alike, the source gives them in different places.

Test system: NSCLC patients
Details: VeriStrat poor patients, SCR samples
From the text: Briefly, by way of overview, 188 patients were enrolled in the study. Key entry criteria for the study were Stage III/IV NSCLC, treatment-naïve, adenocarcinoma histology, with the patients selected from an Asian population and being either non-smokers or light former smokers. Stratification of the population was based on Eastern Cooperative Oncology Group Performance Status (ECOG PS), smoking history, and gender.
In summary, we obtained pre-treatment serum samples from all 188 patients enrolled in the study described above. The samples were blinded and subject to MALDI-TOF mass-spectrometry. The resulting mass spectra were subject to predefined pre-processing steps, described below, and integrated intensity values at pre-defined m/z positions ranges, (i.e., feature values) in the pre-processed spectra were obtained. […]
The pre-treatment serum samples used in the foregoing analysis were largely derived from patient blood samples originally drawn immediately prior to drug dosing (hereafter called “C1D1” samples) in order to define baselines for drug pharmacokinetics and pharmacodynamics. Subsequently, a set of blood samples was analyzed, these being derived from blood draws taken from 1-12 days (median 4.4 days) prior to drug dosing (hereafter called “SCR” samples) for purposes of establishing patient eligibility for study with respect to blood chemistries.

COc1cc2ncnc(Nc3ccc(F)c(Cl)c3)c2cc1OCCCN1CCOCC1 [gefitinib]
median PFS (EGFR SM+ population): 4.1 months | median PFS (ITT population): 2.7 months
